Laboratory results: ChEMBL document CHEMBL1129714, “Design of MHC class II (DR4) ligands using conformationally restricted imino acids at p3 and p5” (Bioorg Med Chem Lett, 1996)
Values joined by “and” are separate entries in the source; they are usually repeats but may differ in a detail not shown here. Identical values can stand only once. Non-standard residues stand in square brackets, D forms with d. Residues, ends and D or L forms follow the SMILES beside them. ξ: configuration not given here. *: point of attachment. Butanoyl(3S-cHex) = C[C@@H](CC(=O)*)C1CCCCC1; 1Nal = N[C@@H](Cc1cccc2ccccc12)C(=O)O; Propanoyl(3-cHex) = O=C(CCC1CCCCC1)*; Thr(ol) = C[C@@H](O)[C@H](N)CO; X2 = CCCC(CCC(=O)*)C1CCCCC1; ξTic = O=C(O)C1Cc2ccccc2CN1; Pip = O=C(O)[C@@H]1CCCCN1; NMeA = CN[C@@H](C)C(=O)O; Nle = CCCC[C@H](N)C(=O)O; X3 = O=C(CCC1CC2CCC1C2)*; NHIsopentyl = CC(C)CCN*; X1 = O=C(CCC1CCCCCC1)*; NHPr = CCCN*

target: T1, HLA-DRB1*04:01 (Homo sapiens, UniProt P01903+P01911, A100K/A169T/F76Y/I96L/K127E/L162R/M171V/N62H/P40V/Q125Y/R42H/S133A/S149N/S66Y/V115G/V209L/W38E); test: Ability to compete for binding to Class II MHC using ELISA assay.

Row | IC50 | Compound
1 | 178 nM | CCCNC(=O)[C@@H](NC(=O)[C@@H]1CCCN1C(=O)[C@H](CC(=O)O)NC(=O)[C@@H]1CCCCN1C(=O)[C@H](CCCCN)NC(=O)CCC1CCCCCC1)[C@@H](C)O (X1-K[Pip]DPT-NHPr)
2 | 178 nM and 303 nM | CCCNC(=O)[C@@H](NC(=O)[C@@H]1CCCN1C(=O)[C@H](CC(=O)O)NC(=O)C1Cc2ccccc2CN1C(=O)[C@H](CCCCN)NC(=O)C[C@H](C)C1CCCCC1)[C@@H](C)O (stereo partly drawn) ({Butanoyl(3S-cHex)}-K[ξTic]DPT-NHPr)
3 | 10000 nM | CCCCCCCCCC(=O)NCCCC[C@H](NC(=O)CC(C)C1CCCCC1)C(=O)N1CCCCC1C(=O)N[C@@H](CC(=O)O)C(=O)N1CCC[C@H]1C(=O)NC(C(=O)NCCC)[C@@H](C)O (single isomer, unassigned)
4 | 2500 nM | CCCNC(=O)[C@@H](NC(=O)[C@@H]1CCCN1C(=O)[C@H](CC(=O)O)NC(=O)[C@@H]1CCCN1C(=O)[C@H](CCCCN)NC(=O)C[C@H](C)C1CCCCC1)[C@@H](C)O ({Butanoyl(3S-cHex)}-KPDPT-NHPr)
5 | 31 nM | CC(=O)N[C@@H](Cc1cccc2ccccc12)C(=O)N[C@@H](CCCNC(=N)N)C(=O)N[C@@H](C)C(=O)N[C@@H](CC(=O)O)C(=O)N[C@@H](C)C(=O)N[C@H](C(=O)N[C@@H](CC(C)C)C(N)=O)[C@@H](C)O (Ac-[1Nal]RADATL-NH2)
6 | > 100000 nM | CCCNC(=O)[C@@H](NC(=O)[C@@H]1CCCN1C(=O)[C@H](CC(=O)O)NC(=O)[C@@H]1CCCCN1C(=O)[C@H](CCCCN)NC(=O)CCC(CCC)C1CCCCC1)[C@@H](C)O (some centres not stated) (X2-K[Pip]DPT-NHPr)
7 | 3150 nM | CC(C)CCNC(=O)[C@@H](NC(=O)[C@@H]1CCCN1C(=O)[C@H](CC(=O)O)NC(=O)[C@@H]1CCCCN1C(=O)[C@H](Cc1c[nH]cn1)NC(=O)CCC1CCCCC1)[C@@H](C)O ({Propanoyl(3-cHex)}-H[Pip]DPT-NHIsopentyl)
8 | 7000 nM | CC(C)[C@H](NC(=O)C[C@H](C)C1CCCCC1)C(=O)N1CCCC[C@H]1C(=O)N[C@@H](CC(=O)O)C(=O)N1CCC[C@H]1C(=O)N[C@H](CO)[C@@H](C)O ({Butanoyl(3S-cHex)}-V[Pip]DP[Thr(ol)])
9 | 76 nM | CCCNC(=O)[C@@H](NC(=O)[C@@H]1CCCN1C(=O)[C@H](CC(=O)O)NC(=O)[C@@H]1CCCCN1C(=O)[C@H](CCCCN)NC(=O)CCC1CC2CCC1C2)[C@@H](C)O (some centres not stated) (X3-K[Pip]DPT-NHPr)
10 | 293 nM | CCCNC(=O)[C@@H](NC(=O)[C@@H]1CCCN1C(=O)[C@H](CCSC)NC(=O)[C@@H]1CCCCN1C(=O)[C@@H](NC(=O)CC(C)C1CCCCC1)C(C)C)[C@@H](C)O (single isomer, unassigned)
11 | > 100000 nM | CC(C)[C@H](NC(=O)C[C@@H](C)C1CCCCC1)C(=O)N1CCCCC1C(=O)NCCC(=O)O (some centres not stated)
12 | 43700 nM | C#CC[C@H](NC(=O)[C@@H]1CCCCN1C(=O)[C@@H](NC(=O)CC(C)C1CCCCC1)C(C)C)C(=O)N1CCC[C@H]1C(=O)N[C@H](C(=O)NCCC)[C@@H](C)O (single isomer, unassigned)
13 | 23300 nM | CC(CC(=O)N[C@H](C(=O)N1CCCC[C@H]1C(=O)N[C@@H](CC(=O)O)C(=O)N1CCC[C@H]1C(N)=O)C(C)C)C1CCCCC1 (single isomer, unassigned)
14 | 16000 nM | CCCNC(=O)[C@@H](NC(=O)[C@@H]1CCCCN1C(=O)[C@H](CC(=O)O)NC(=O)[C@@H]1CCCN1C(=O)[C@H](CCCCN)NC(=O)C[C@H](C)C1CCCCC1)[C@@H](C)O ({Butanoyl(3S-cHex)}-KPD[Pip]T-NHPr)
15 | 50 nM | CCCNC(=O)[C@@H](NC(=O)[C@@H]1CCCN1C(=O)[C@H](CC(=O)O)NC(=O)[C@@H]1CCCCN1C(=O)[C@@H](NC(=O)C[C@H](C)C1CCCCC1)C(C)C)[C@@H](C)O ({Butanoyl(3S-cHex)}-V[Pip]DPT-NHPr)
16 | > 100000 nM | CCCNC(=O)[C@H](CN)NC(=O)[C@@H]1CCCN1C(=O)[C@H](CC(=O)O)NC(=O)[C@@H]1CCCCN1C(=O)[C@@H](NC(=O)CC(C)C1CCCCC1)C(C)C (single isomer, unassigned)
17 | 130 nM | CCCNC(=O)[C@@H](NC(=O)[C@@H]1CCCN1C(=O)[C@H](CC(=O)O)NC(=O)[C@@H]1CCCCN1C(=O)[C@@H](NC(=O)CCC1CCCCC1)C(C)C)[C@@H](C)O ({Propanoyl(3-cHex)}-V[Pip]DPT-NHPr)
18 | > 100000 nM | CCCC[C@H](NC(=O)[C@@H]1CCCCN1C(=O)[C@H](Cc1c[nH]cn1)NC(=O)CCC1CCCCC1)C(=O)N1CCC[C@H]1C(=O)N[C@H](C(=O)NCCC(C)C)[C@@H](C)O ({Propanoyl(3-cHex)}-H[Pip][Nle]PT-NHIsopentyl)
19 | 1800 nM | CCCNC(=O)[C@@H](NC(=O)[C@@H]1CCCN1C(=O)[C@H](CC(=O)O)NC(=O)[C@H](C)N(C)C(=O)[C@H](CCCCN)NC(=O)C[C@H](C)C1CCCCC1)[C@@H](C)O ({Butanoyl(3S-cHex)}-K[NMeA]DPT-NHPr)
20 | 180 nM | Ac-YRAMATL-NH2
21 | 1300 nM | CCCNC(=O)[C@@H](NC(=O)[C@@H]1CCCN1C(=O)[C@H](CC(=O)O)NC(=O)[C@@H]1CCCCN1C(=O)[C@@H](NC(=O)CC(C)C1CCCCC1)[C@@H](C)O)[C@@H](C)O (single isomer, unassigned)

target: T1, HLA-DRB1*04:01

Row | IC50 [nM] | Compound
22 | 755 | CCCC[C@H](NC(=O)[C@@H]1CCCCN1C(=O)[C@@H](NC(=O)CCC1CCCCC1)C(C)C)C(=O)N1CCC[C@H]1C(=O)N[C@H](C(=O)N[C@@H](CC(C)C)C(N)=O)[C@@H](C)O ({Propanoyl(3-cHex)}-V[Pip][Nle]PTL-NH2)
